The values that follow come from patent US20110015274A1, “FORM OF AN […] DERIVATIVE” (priority 2009, published 2011).

The structures appear in SMILES notation. Where “and” joins values, the source holds several entries; their conditions need not be identical. Equal values may be shown once. Read-outs that look alike come from different tables or passages of the source.

The conditions of series [1]: by volume, wet dispersion in Isopar G, sonicated 3 minutes; mesylate. The text has this: The particle size parameters measured in the present disclosure have been obtained by means of laser light diffraction technique, and specifically by means of a Malvern Mastersizer S particle size analyzer having characteristics as set out below. Namely, the laser source used was a 2 milliwatt Helium/neon laser (633 nm wavelength); the detection system was a Fourier Transform lens system; the sample was run using a […]; the sample unit was a sample unit for wet measurement, and particularly was a MS1-Small volume Sample Dispersion Unit stirred cell. The wet dispersion was prepared by using a solution of 1.5 g of Soybean Lecithin in 200 mL of Isopar G as a sample dispersant, and the dispersion was controlled by stirring the unit cell. […] The characterization parameters (volume distributions) were measured for at least six times for each sample, and the result is a mean of said measured values for each sample.
A 300RF mm lens and a beam length of 2.4 mm were used. Preparation of sample dispersant: 1.5 g of Soybean Lecithin was added to 200 mL of Isopar G, and the mixture was mixed gently until Lecithin dissolved. […] The paste was delivered to the previously background and corrected measuring cell filled with dispersant (Isopar G) until the obscuration reached the desired level. The suspension was sonicated for 3 minutes. Volume distributions were obtained for at least six measures. After completing the measurements, the sample cell was emptied and cleaned, refilled with suspending medium, and the sampling procedure repeated again. For characterization, the values of D10, D50 and D90 (by volume) were specifically listed, each one being the mean of the measured values available for each characterization parameter.
The notation Dx [also written as D(v, 0.X)] means that X % of the particles have a diameter less than a specified diameter D. Thus a D90 [or D(v, 0.9)] of 100 μm means that 90% of the particles have a diameter less than 100 μm.

For series [2] the following is noted: N2 at 77 K, relative pressures 0.05 to 0.3; mesylate. The source says: The specific surface area values disclosed in the present disclosure have been obtained by means of a specific surface area analysis technique based on the BET (Brunauer, Emmett and Teller) theory, which is a well-accepted theory known in the art for the calculation of surface areas of solids by means of measuring their physical adsorption of gas molecules (See S. Brunauer, P. H. Emmett and E. Teller, J. Am. Chem. Soc., 1938, 60, 309). In particular, the specific surface area values measured have been calculated from the BET surface area plot obtained by measuring the quantity of nitrogen gas molecules adsorbed by a weighted amount of solid at different relative pressures (P/P0) within the range 0.05 to 0.3, at 77K. Precisely, the measurement of the adsorption of gas molecules was carried out by means of a Micromeritics™ Gemini V equipment having the characteristics as set out below. Namely, the gas used for adsorption measure was nitrogen gas. […] The sample for analysis was degassed (at 30° C. for 10 minutes and at 130° C. for 90 minutes). The determination of the adsorption of nitrogen was measured at 77K and for twelve relative pressures sufficiently dispersed within in the range of 0.05 to 0.3 (i.e. twelve absolute pressures in the range of 38.860001 mmHg to 230.464996 mmHg relative to a saturated pressure of 765.705017 mmHg).
The sample for analysis was degassed at 30° C. for 10 minutes and at 130° C. for 90 minutes.

The procedure of series [3]: The substantial absence of agglomeration in accordance with the present invention can be determined by visual inspection and/or by optical microscopy. […] That is, the smallest agglomerate to be observed by particle size analysis would be the agglomerate resultant of the union of a single crystal with another which would lead to an increase of 100% in the D90 and/or the D50 measured value.
The chromatographic separation was carried out in a Chiralpak IC, 5 μm, 250×4.6 mm I.D column; at 30° C.
The mobile phase was prepared by mixing 950 mL of n-hexane, 40 mL of 2-propanol, 10 mL of ethanol, 4 mL of trifluoroacetic acid and 1 mL of diethylamine. The mixture was mixed thoroughly.
The chromatograph was equipped with a 265 nm detector, and the flow rate was 1.4 mL per minute.
The test samples were prepared by dissolving the appropriate amount of sample to obtain 10 mg per mL in diluent. The diluent was prepared by mixing 89 mL of mobile phase, 10 mL of 2-propanol and 1 mL of diethylamine. The injection volume was 5 μL.
Samples were taken and analyzed after 1, 2, 3 and 6 months storage.

For series [4] the following is noted: 25° C.±1° C., 80%±2% relative humidity, 24 hours. How it is done: The percentage increase in mass was calculated based on the hygroscopicity method described in the European Pharmacopoeia 5.0 (general chapter 5.11).
The conditions of series [5]: WO 2008/019871 Example 8, prepared in isopropanol; cited from earlier work.
For series [6] the following is noted: cited from earlier work.
For series [7] the following is noted: heating at 80° C. for 72, 96 or 144 hours, and refluxing in isopropanol for 30 hours; cited from earlier work.
For series [8] the following is noted: material with D90 of less than 6 μm stored at 25±2° C., 65±5% relative humidity, 5 days; cited from earlier work.
The conditions of series [9]: cited from earlier work. This is another data set of the same source.

For `C#CCN[C@@H]1CCc2ccccc21.CS(=O)(=O)O` [Example 3, R-(+)-N-propargyl-1-aminoindan mesylate], in [1], the “Particle size D(v, 0.1)” value was 37.4 μm; the “Particle size D(v, 0.5)” value stood at 159.6 μm; the “Particle size D(v, 0.9)” value was 404.2 μm. Also, the “Specific Surface Area (BET)” value in series [2] worked out at 0.0474 m^2/g.

For the compound `C#CCN[C@@H]1CCc2ccccc21.CS(=O)(=O)O` [Example 4, R-(+)-N-propargyl-1-aminoindan mesylate], in [1], the “Particle size D(v, 0.1)” value stood at 54.9 μm. The “Particle size D(v, 0.5)” value in [1] is listed as 208.5 μm. For the same compound, the “Particle size D(v, 0.9)” value in [1] came out at 464.0 μm. The “Specific Surface Area (BET)” value in series [2] is 0.1434 m^2/g. Moreover, the “Total impurities (HPLC)” value is listed as <0.05% in series [3] (1 month, 40±2° C., 75%±5% relative humidity); <0.05% in series [3] (2 months, 40±2° C., 75%±5% relative humidity); <0.05% in [3] (3 months, 40±2° C., 75%±5% relative humidity); <0.05% in series [3] (6 months, 40±2° C., 75%±5% relative humidity); <0.05% in series [3] (Initial sample). Also, the “% Mass increase” value in series [4] is 0.01%. In addition, in series [4], the “Hygroscopicity (in words)” value is reported as “not hygroscopic material”.

As to `C#CCN[C@@H]1CCc2ccccc21.CS(=O)(=O)O` [Reference Example 1, R-(+)-N-propargyl-1-aminoindan mesylate], in [1], the “Particle size D(v, 0.1)” value stood at 17.4 μm; the “Particle size D(v, 0.5)” value is reported as 62.6 μm; the “Particle size D(v, 0.9)” value was 118.0 μm. Moreover, in [2], the “Specific Surface Area (BET)” value is given as 0.3216 m^2/g.

As for `C#CCN[C@@H]1CCc2ccccc21.CS(=O)(=O)O` [Example 2, R-(+)-N-propargyl-1-aminoindan mesylate], in [1], the “Particle size D(v, 0.1)” value came to 37.0 μm; the “Particle size D(v, 0.5)” value was found to be 118.7 μm; the “Particle size D(v, 0.9)” value is 246.7 μm.

For `C#CCN[C@@H]1CCc2ccccc21.CS(=O)(=O)O` [rasagiline mesylate, R-(+)-N-propargyl-1-aminoindan mesylate], in [5], the “Particle size d(0.1)” value is recorded as 13.6±0.05 μm, the “Particle size d(0.5)” value is recorded as 40.5±0.25 μm, the “Particle size d(0.9)” value is 85.7±0.89 μm and the “Particles below 250 μm” value is on record as 100%. The “Behaviour of the powder on storage” value in [6] (4 weeks at 40° C., 75% relative humidity in an opened container) is “transforms into a sticky powder”. The “Behaviour of the powder on storage” value in series [6] (4 weeks at 60° C. in a closed glass bottle) was “agglomerates”. Moreover, the “Change in water content on storage” value in series [6] (4 weeks storage, WO 2008/019871 Example 5) was “no substantial changes”. Moreover, the Appearance result in [7] was “kept an appearance of white powder”. Further, the D90 after storage entry in series [8] is recorded as “approximately 151 μm”. In series [9] (after milling), the “d(0.9) or D90 after milling” value was 156-189 μm. Further, the “d(0.9) or D90 before milling” value in series [9] (samples containing large, irregular particles, initial) is on record as 386-598 μm.

Regarding `C#CCN[C@@H]1CCc2ccccc21.CS(=O)(=O)O` [Reference Example 2, R-(+)-N-propargyl-1-aminoindan mesylate], in series [1], the “Particle size D(v, 0.1)” value is on record as 14.7 μm; the “Particle size D(v, 0.5)” value was 60.2 μm; the “Particle size D(v, 0.9)” value stood at 143.6 μm. The “Specific Surface Area (BET)” value in series [2] is recorded as 0.2490 m^2/g.

Turning to `C#CCN[C@@H]1CCc2ccccc21.CS(=O)(=O)O` [Example 1, R-(+)-N-propargyl-1-aminoindan mesylate], in series [1], the “Particle size D(v, 0.1)” value stood at 30.6 μm; the “Particle size D(v, 0.5)” value is on record as 89.0 μm; the “Particle size D(v, 0.9)” value stood at 163.6 μm. Also, the “Specific Surface Area (BET)” value in series [2] is given as 0.0722 m^2/g.

With `C#CCN[C@@H]1CCc2ccccc21.CS(=O)(=O)O` [Reference Example 3, R-(+)-N-propargyl-1-aminoindan mesylate], in [1], the “Particle size D(v, 0.1)” value was determined as 127.5 μm; the “Particle size D(v, 0.5)” value is on record as 311.2 μm; the “Particle size D(v, 0.9)” value was 611 μm and 611.1 μm. Also, the “Specific Surface Area (BET)” value in series [2] is 0.0274 m^2/g.
